Series [1] relates to normal ICR mice. As to the kind of experiment: Hypoglycemic effect, oral glucose tolerance in normal ICR mice. The settings on record: 10 mg/kg by gavage, glucose 4 g/kg 15 minutes after administration. The series is classed as in vivo. As for the experimental part: To observe the effects on oral glucose tolerance of the compounds of Example 1-4 and Example 8-12 in normal ICR mice (SINO-BRITSH SIPPR/BK LAB.ANIMAL LTD., CO), the hypoglycemic effects in vivo have been evaluated using blood-glucose meter to measure and analyze the sugar content of the samples at different time points during 2 hours. The samples were taken from the mouse's tail.
The administration dose was 10 mg/kg, and the blank was administered with water. Both groups contained 5% DMSO.
The mice were administered by gavage. 4 g/kg of 10% glucose solution was administered (0.8 mL to each mice) 15 minutes after administration.
The mice were administered according to above dose (the blank group was administrated with 5% DMSO aqueous solution) and the blood sugar value was measured (−15 minutes).
15 minutes after administration, the mice were administered of 4 g/kg of 20% glucose solution and the values of blood sugar were tested by Roche ACCU-CHEK at 0, 15, 30, 45, 60, 120 minutes.

Series [2] can be described thus: Pharmacokinetics assay in rats (LC/MS/MS plasma concentration). The series is classed as in vivo, SD rats. The text has this:
The compound of Example 3 was administrated intragastrically or tail vein injection to rats and the compounds of Example 1-4, Example 9 and Example 11-12 were administrated intragastrically to determine the drug concentration in plasma at different time points by LC/MS/MS measurement. The pharmacokinetics of the compounds of the present invention was studied and evaluated in rats. And the oral absolute bioavailability was investigated.
Compounds of Example 1-4, Example 9 and Example 11-12.
[…] healthy adult SD rats, male and female in half, were purchased from SINO-BRITSH SIPPR/BK LAB.ANIMAL LTD., CO, License number: SCXK (Shanghai) 2008-0016.
Vein injection group: the proper weighed test compound was dissolved in 0.5 mL of DMSO by ultrasound and then diluted with normal saline to 15 mL to form a 0.3 mg/mL solution.
Intragastrically administered group: the proper weighed test compound was dissolved in 0.5% CMC-Na by ultrasound to form a 0.3 mg/mL of suspension.
32 healthy adult SD rats, male and female in half, were divided into 8 groups so that each group consisted 4 rats. After an overnight fast, the rats were tail vein injected of the compound of Example 3 and intragastrically administered the compound of Example 3 and the salt thereof, at a dose of 3.0 mg/kg (calculated as the free base form) and a volume of 10 mL/kg.
Blood samples (0.2 mL) of the rats in vein injection group were taken from eye socket at pre administration and at 2, 15, 30 minutes and 1.0, 2.0, 4.0, 6.0, 8.0, 12.0, 24.0 hours post administration, which were stored in heparinized tubes and centrifuged for 10 minutes at 3,500 rpm. The plasma samples were stored at −20° C. until analysis. The rats were fed 2 hours after administration.
Blood samples of the rats in intragastrically administered group were taken at pre administration and at 0.5, 1.0, 2.0, 3.0, 4.0, 6.0, 8.0, 12.0, 24.0 hours post administration. The samples were treated with the same method as mentioned above.
50 μL of internal standard solution and 150 μL of methanol were added to 50 μL of rat plasma obtained at various time points after administration. Then the mixture was mixed for 3 minutes using a vortexer and centrifuged for 10 minutes at 13,500 rpm. 10 μL of the supernatant was analyzed by LC/MS/MS.
The compartmental model of pharmacokinetics was fitted for the test compounds and the major pharmacokinetic parameters were calculated by DAS 2.0 software in which Cmax and tmax were the actually measured values. The absolute bioavailability was calculated by AUC0-t taken from post administration and vein injection.

The target in series [3] is T1, DPP-VIII (Homo sapiens, UniProt Q6V1X1).
T1 construct: purchased Bioscience 80080
Description: DPP-VIII inhibition, Promega DPPIV-Glo Protease Assay. The series is classed as biochemical. To be noted: read-out: IC50 DPP8. As to the method:
(§1) The compounds of the present invention were tested to determine their DPP-IV, DPP-VIII, DPP-IX inhibition activity according to the following methods. The half inhibition concentrations IC50 (the concentration of the test compound showing 50% inhibition to the enzyme activity) of each compound were determined by reaction test and calculation of the mixture of fixed amounts of enzyme and substrate with several different concentrations of the test compounds.
(§2) The compounds of the present invention were tested to determine the DPP-IV, DPP-VIII, DPP-IX inhibition activity in the following tests using Promega DPPIV-Glo™ Protease Assay (Cat No. G8350/G8351) Kit, wherein:
b. DPP-VIII enzyme bought from Bioscience, Catalog no. 80080;
(§3) The preparation procedure of the conventional reagent such as DPPIV-Glo buffer, luciferin reagents needed in the test and the detail operation of the test can refer to the specifications of the kits. The assay was carried out as following steps:
(§4) The tested compounds were dissolved in DMSO to prepare a series of different concentrations of the test compound solution. DPPIV-Glo buffer and the freezing luciferin detection reagent were equilibrated to room temperature. The luciferin detection reagent was dissolved in moderate buffer in a brown flask to form a solution. Then DPP-IV-Glo. was dissolved in ultrapure water to give the appropriate concentration. The substrate solution and the luciferin detection reagent solution were mixed sufficiently in an appropriate ratio (the ratio of the invention is 1:49), and the mixture was layed at room temperature for 30-60 minutes. Tris buffer (2 mM, pH 8.0), the test compounds and DPP-IV (DPP-VIII or DPP-IX) were mixed and then transferred to a 96-well plate. Each test contains double-well of three-well control. The same volume of DMSO was added to the negative control and blank control. Then the 96-well plate was added with mixed solution of luciferin detection reagent and substrate to initiate the reaction. The 96-wells plate was incubated at room temperature on a plate shaker for 40 minutes after sealed. The strength of the fluorescent signal in each well was determined by microplate reader and the inhibition rate to the enzyme of the compound at this concentration was calculated by the formula as following: inhibitory rate: IR=[1−(S−B)/(N−B)]*100% • S: value of the sample • B: value of the blank control • N: value of the negative control
(§5) IC50 of the test compounds can be calculated by the inhibition rate at different concentration.

Series [4] has as its target T2, DPP-IX (Homo sapiens, UniProt Q86TI2).
T2 construct: purchased Bioscience 80090
As to the kind of experiment: DPP-IX inhibition, Promega DPPIV-Glo Protease Assay. The series is classed as biochemical. The settings on record: read-out: IC50 DPP9. As for the experimental part: as §1, §2
c. DPP-IX enzyme bought from Bioscience, Catalog no. 80090.
as §3, §4, §5

Series [5] is described as follows: Solubility experiment in four systems. The series is classed as physicochemical. As to the method:
According to the conventional solubility measurement, the solubility of the test samples were determined in four different systems: phosphate buffer solution (PBS, pH=7.4), methanol, 0.1% hydrochloric acid and water.

The target in series [6] is T3, DPP-IV (Homo sapiens, UniProt P27487).
T3 construct: purchased Calbiochem 317630
To be noted: example 10 of PCT/CN2008/001936; cited from earlier work.

Like-named read-outs stand apart in the source and are kept apart here.

T1 sequence (Q6V1X1 whole entry): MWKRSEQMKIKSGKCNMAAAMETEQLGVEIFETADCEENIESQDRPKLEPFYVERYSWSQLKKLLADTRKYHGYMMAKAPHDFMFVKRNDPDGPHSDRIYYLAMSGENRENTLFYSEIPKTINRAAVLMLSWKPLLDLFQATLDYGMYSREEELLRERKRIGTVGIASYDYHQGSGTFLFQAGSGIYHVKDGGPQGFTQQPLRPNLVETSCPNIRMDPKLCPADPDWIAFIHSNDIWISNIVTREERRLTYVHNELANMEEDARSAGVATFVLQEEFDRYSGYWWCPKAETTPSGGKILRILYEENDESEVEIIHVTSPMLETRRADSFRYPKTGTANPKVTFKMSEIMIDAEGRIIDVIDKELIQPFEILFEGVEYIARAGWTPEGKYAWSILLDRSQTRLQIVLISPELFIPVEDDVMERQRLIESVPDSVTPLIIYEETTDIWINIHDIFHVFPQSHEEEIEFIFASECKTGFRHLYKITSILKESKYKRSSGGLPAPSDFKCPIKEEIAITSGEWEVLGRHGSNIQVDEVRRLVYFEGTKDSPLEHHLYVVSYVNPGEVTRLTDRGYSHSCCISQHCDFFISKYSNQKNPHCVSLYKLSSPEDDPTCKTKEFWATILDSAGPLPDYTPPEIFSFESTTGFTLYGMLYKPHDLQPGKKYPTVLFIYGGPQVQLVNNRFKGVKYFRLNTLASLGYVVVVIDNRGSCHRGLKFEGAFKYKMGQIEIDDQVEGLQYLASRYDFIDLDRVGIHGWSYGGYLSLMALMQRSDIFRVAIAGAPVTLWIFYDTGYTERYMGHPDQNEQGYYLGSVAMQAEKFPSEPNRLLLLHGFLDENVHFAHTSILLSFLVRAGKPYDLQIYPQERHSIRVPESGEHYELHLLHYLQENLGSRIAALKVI
T2 sequence (Q86TI2 whole entry): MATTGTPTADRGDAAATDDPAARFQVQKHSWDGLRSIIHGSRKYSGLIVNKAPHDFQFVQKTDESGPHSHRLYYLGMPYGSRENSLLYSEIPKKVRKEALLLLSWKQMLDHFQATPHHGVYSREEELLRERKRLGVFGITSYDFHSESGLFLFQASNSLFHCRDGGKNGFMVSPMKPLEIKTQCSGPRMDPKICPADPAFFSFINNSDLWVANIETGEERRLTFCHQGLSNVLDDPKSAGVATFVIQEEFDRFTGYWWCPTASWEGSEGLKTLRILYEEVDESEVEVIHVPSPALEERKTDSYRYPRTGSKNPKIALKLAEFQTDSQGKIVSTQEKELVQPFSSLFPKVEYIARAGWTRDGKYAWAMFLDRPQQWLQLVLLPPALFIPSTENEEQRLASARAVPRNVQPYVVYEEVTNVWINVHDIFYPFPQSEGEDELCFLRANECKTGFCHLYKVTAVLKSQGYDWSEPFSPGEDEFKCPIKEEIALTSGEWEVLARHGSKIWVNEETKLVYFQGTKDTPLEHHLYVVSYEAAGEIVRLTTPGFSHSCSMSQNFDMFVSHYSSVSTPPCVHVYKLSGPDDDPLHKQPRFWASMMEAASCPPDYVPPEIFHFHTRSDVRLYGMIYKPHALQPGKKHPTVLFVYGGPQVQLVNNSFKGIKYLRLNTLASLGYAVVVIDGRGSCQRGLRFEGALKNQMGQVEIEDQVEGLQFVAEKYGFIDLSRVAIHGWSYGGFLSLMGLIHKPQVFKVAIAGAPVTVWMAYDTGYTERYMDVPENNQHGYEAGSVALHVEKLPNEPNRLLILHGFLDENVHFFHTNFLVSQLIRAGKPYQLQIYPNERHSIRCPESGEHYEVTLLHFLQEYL
T3 sequence (P27487 whole entry): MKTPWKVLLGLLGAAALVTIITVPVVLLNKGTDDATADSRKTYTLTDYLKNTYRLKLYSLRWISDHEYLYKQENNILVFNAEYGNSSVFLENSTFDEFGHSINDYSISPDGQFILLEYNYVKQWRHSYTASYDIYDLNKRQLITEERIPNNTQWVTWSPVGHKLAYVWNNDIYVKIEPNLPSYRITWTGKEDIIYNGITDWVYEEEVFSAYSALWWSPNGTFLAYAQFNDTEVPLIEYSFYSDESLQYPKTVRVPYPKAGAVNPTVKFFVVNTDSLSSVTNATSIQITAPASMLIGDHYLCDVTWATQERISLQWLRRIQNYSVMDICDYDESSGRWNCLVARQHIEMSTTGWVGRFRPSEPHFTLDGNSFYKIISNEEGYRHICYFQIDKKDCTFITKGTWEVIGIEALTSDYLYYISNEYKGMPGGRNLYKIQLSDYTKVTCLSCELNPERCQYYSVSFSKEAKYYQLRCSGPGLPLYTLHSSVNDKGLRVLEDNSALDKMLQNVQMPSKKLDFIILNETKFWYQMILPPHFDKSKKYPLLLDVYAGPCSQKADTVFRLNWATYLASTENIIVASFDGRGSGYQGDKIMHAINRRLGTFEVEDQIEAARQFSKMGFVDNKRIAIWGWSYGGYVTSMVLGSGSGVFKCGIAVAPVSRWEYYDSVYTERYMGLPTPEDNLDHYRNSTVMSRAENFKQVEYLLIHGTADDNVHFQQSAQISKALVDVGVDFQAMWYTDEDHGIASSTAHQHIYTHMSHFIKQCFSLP

In general, half-life refers to how long it takes for the measured level to halve. High values mean slow loss, low ones fast loss. For orientation: Cmax means the highest concentration seen after dosing. The MRT is a mean duration of stay, worked out from the concentration-time curve. By Tmax is commonly meant the time from dosing to the highest level. What is called IC50 is the point on the concentration scale where inhibition reaches its midpoint. The solubility is the concentration that dissolves in the medium under given conditions. For `Cl.N[C@@H](CC(=O)N1CCn2c(C(F)(F)F)nc(C(=O)O)c2C1)Cc1cc(F)c(F)cc1F` [Example 1, (R)-7-[3-Amino-4-(2,4,5-trifluorophenyl)-butanoyl]-3-trifluoromethyl-5,6,7,8-tetrahydro-imidazo[1,5-a]pyrazine-1-carboxylic acid hydrochloride], the “Hypoglycemic rate of blood sugar of 30 minutes after administration” value in series [1] is on record as 16.06%. In series [2] (both sexes, SD, rat, plasma, po, 3 mg/kg, intragastric 3.0 mg/kg), this compound gave a half-life of 1.74 ± 0.16 h. The AUC(0-t) in series [2] (both sexes, SD, rat, plasma, po, 3 mg/kg, intragastric 3.0 mg/kg, read-out: AUC0-t) is 66.6 ± 19.5 ng·h/mL. Moreover, the CL/F in series [2] (both sexes, SD, rat, plasma, po, 3 mg/kg, intragastric 3.0 mg/kg, read-out: CL/F (converted)) is 760 mL/min/kg. Also, in series [2] (both sexes, SD, rat, plasma, po, 3 mg/kg, intragastric 3.0 mg/kg, read-out: Cmax), the Cmax was 18 ± 7.5 ng/mL. In series [2] (both sexes, SD, rat, plasma, po, 3 mg/kg, intragastric 3.0 mg/kg, read-out: MRT), the MRT worked out at 3.17 ± 0.36 h. For the same compound, in series [2] (both sexes, SD, rat, plasma, po, 3 mg/kg, intragastric 3.0 mg/kg, read-out: Tmax), the Tmax is 2.5 ± 1 h. Further, the Vd/F in series [2] (both sexes, SD, rat, plasma, po, 3 mg/kg, intragastric 3.0 mg/kg, read-out: Vz/F) is 114 ± 27 L/kg. Further, the F in series [2] (intragastric 3.0 mg/kg (as free base), absolute bioavailability from AUC0-t vs vein injection) was found to be 2.90%. The values for the 50% inhibitory concentration (IC50) in series [3] and in series [4] were 87.9 µM and 63.6 µM, respectively. For the same compound, the solubility in series [5] (0.1% hydrochloric acid, simulated gastric fluid, 0.1% hydrochloric acid, read-out: Solubility Value, 0.1% HCl) is 17.2 mg/mL; in series [5] (methanol, organic solvent or mixture, methanol, read-out: Solubility Value, methanol), 31.3 mg/mL; in series [5] (phosphate buffer solution (PBS), pH 7.4, aqueous buffer, PBS pH 7.4, read-out: Solubility Value, PBS (pH 7.4)), 18.6 mg/mL; in series [5] (water, read-out: Solubility Value, water) it was 20.9 mg/mL. In series [6], the “inhibition activity against DPP-IV (in words)” value is “excellent inhibition activity”.
